In ChEMBL document CHEMBL1133078, “Isoxazolines and isoxazoles as factor Xa inhibitors” (Bioorg Med Chem Lett, 2000):

Key:
Serine protease 1 = target: T1, Serine protease 1 (Bos taurus, UniProt P00760); assay: Inhibitory activity against trypsin
T1 sequence (P00760 whole entry): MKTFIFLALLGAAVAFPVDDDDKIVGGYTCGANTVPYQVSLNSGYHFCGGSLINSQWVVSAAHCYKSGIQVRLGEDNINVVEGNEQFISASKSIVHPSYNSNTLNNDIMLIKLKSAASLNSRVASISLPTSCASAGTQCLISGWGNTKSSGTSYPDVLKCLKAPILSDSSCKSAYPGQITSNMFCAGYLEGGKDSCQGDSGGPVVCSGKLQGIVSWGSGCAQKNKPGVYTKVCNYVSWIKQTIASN

[1] = Half-life after intravenous administration of 1 mg/kg/h in dog; assay type: ADME, organism-based, Canis lupus familiaris; design: route intravenous; conditions: in vivo
Oryctolagus cuniculus = organism: Oryctolagus cuniculus; assay: Concentration required to diminish the clot size by 50% in rabbit A-V shunt model of thrombosis; assay type: functional
[2] = Clearance value of compound was determined after intravenous administration of 1 mg/kg/h in dog; assay type: ADME, organism-based, Canis lupus familiaris; design: route intravenous; conditions: in vivo
Coagulation factor X [3] = target: T2, Coagulation factor X (Oryctolagus cuniculus, UniProt O19045); assay: Inhibitory activity against rabbit Coagulation factor X
T2 sequence (O19045 whole entry): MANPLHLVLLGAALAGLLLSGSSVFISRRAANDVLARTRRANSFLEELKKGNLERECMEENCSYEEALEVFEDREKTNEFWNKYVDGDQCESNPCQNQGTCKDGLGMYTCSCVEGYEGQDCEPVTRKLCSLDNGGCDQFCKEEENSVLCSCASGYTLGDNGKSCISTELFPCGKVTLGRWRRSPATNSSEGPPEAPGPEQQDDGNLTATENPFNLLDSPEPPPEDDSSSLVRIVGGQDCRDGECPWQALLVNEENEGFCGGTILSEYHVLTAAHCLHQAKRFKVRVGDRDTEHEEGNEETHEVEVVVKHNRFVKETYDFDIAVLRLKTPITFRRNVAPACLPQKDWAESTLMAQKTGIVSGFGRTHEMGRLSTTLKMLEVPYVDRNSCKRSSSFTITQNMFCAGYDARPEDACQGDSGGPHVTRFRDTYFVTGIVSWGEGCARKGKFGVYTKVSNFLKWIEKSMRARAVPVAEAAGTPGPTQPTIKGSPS

Canis familiaris = assay: Volume of distribution after intravenous administration of 1 mg/kg/h in dog; assay type: ADME, organism-based, Canis lupus familiaris; design: route intravenous; conditions: in vivo
Prothrombin = Prothrombin (Homo sapiens, UniProt P00734); assay: Inhibitory activity against thrombin
Coagulation factor X [4] = target: Coagulation factor X (Homo sapiens, UniProt P00742); assay: Inhibition of human Coagulation factor X
Chain of Coagulation factor X (Homo sapiens, UniProt P00742) (P00742 41-179 limits assumed): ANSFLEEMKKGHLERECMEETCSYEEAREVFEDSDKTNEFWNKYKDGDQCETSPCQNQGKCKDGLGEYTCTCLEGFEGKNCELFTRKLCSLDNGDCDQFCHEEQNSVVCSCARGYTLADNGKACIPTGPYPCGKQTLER
Chain of Coagulation factor X (Homo sapiens, UniProt P00742) (P00742 235-488 limits assumed): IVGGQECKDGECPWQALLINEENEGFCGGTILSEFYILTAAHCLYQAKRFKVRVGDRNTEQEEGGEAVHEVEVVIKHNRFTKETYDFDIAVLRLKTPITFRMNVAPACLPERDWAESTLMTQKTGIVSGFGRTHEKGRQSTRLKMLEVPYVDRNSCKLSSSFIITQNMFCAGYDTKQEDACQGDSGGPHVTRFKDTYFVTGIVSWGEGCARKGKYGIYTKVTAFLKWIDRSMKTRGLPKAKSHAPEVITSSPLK

[5] = Volume of distribution after intravenous administration of 1 mg/kg/h in dog; conditions: in vivo

## N=C(N)c1cccc(-c2nocc2C(=O)Nc2ccc(-c3ccccc3S(N)(=O)=O)cc2)c1
Serine protease 1
  Ki: 21 nM
[1]
  half-life: 4.3 h
Oryctolagus cuniculus
  ID50: 0.31 µM/h/kg
[2]
  clearance: 25 mL/min/kg
Coagulation factor X [3]
  Ki: 0.4 nM
Canis familiaris
  Vdss: 1.7 L/kg
Prothrombin
  Ki: 2000 nM

## N=C(N)c1cccc(C2=NOC(Cn3cnnn3)(C(=O)Nc3ccc(-c4ccccc4S(N)(=O)=O)cc3)C2)c1 (stereo not drawn)
Serine protease 1
  Ki: 91 nM

## N=C(N)c1cccc(-c2noc(CO)c2C(=O)Nc2ccc(-c3ccccc3S(N)(=O)=O)cc2)c1
Serine protease 1
  Ki: 50 nM
Prothrombin
  Ki: 1900 nM
Coagulation factor X [4]
  Ki: 0.5 nM

## CS(=O)(=O)c1ccccc1-c1ccc(NC(=O)c2conc2-c2cccc(C(=N)N)c2)cc1
Serine protease 1
  Ki: 25 nM
Prothrombin
  Ki: 540 nM
Coagulation factor X [4]
  Ki: 0.1 nM

## COCc1onc(-c2cccc(C(=N)N)c2)c1C(=O)Nc1ccc(-c2ccccc2S(N)(=O)=O)cn1
Serine protease 1
  Ki: 200 nM
Prothrombin
  Ki: 12000 nM

## N=C(N)c1cccc(C2=NO[C@H](Cn3cnnn3)[C@H]2C(=O)Nc2ccc(-c3ccccc3S(N)(=O)=O)cc2)c1
Serine protease 1
  Ki: 180 nM
[1]
  half-life: 1 h
[2]
  clearance: 8.17 mL/min/kg
Canis familiaris
  Vdss: 0.24 L/kg
Prothrombin
  Ki: 5700 nM
Coagulation factor X [4]
  Ki: 2.3 nM

## COCC1(C(=O)Nc2ccc(-c3ccccc3S(N)(=O)=O)cc2)CC(c2cccc(C(=N)N)c2)=NO1 (stereo not drawn)
Serine protease 1
  Ki: 70 nM
Oryctolagus cuniculus
  ID50: 0.26 µM/h/kg
Coagulation factor X [3]
  Ki: 0.8 nM

## COC[C@H]1ON=C(c2cccc(C(=N)N)c2)[C@@H]1C(=O)Nc1ccc(-c2ccccc2S(N)(=O)=O)cc1
Serine protease 1
  Ki: 190 nM
[1]
  half-life: 1.2 h
Oryctolagus cuniculus
  ID50: 0.21 µM/h/kg
[2]
  clearance: 16.5 mL/min/kg
[5]
  Vdss: 0.38 L/kg
Coagulation factor X [3]
  Ki: 0.64 nM
Prothrombin
  Ki: 4600 nM

## N=C(N)c1cccc(-c2noc(C(F)(F)F)c2C(=O)Nc2ccc(-c3ccccc3S(N)(=O)=O)cc2)c1
Serine protease 1
  Ki: 400 nM
Prothrombin
  Ki: 11000 nM
Coagulation factor X [4]
  Ki: 9.5 nM

## COCc1onc(-c2cccc(C(=N)N)c2)c1C(=O)Nc1ccc(-c2ccccc2S(N)(=O)=O)cc1
Serine protease 1
  Ki: 76 nM
[1]
  half-life: 1.2 h
[2]
  clearance: 28.3 mL/min/kg
Canis familiaris
  Vdss: 0.85 L/kg
Prothrombin
  Ki: 3800 nM
Coagulation factor X [4]
  Ki: 0.63 nM

## N=C(N)c1cccc(-c2noc(N)c2C(=O)Nc2ccc(-c3ccccc3S(N)(=O)=O)cc2)c1
Serine protease 1
  Ki: 117 nM
Prothrombin
  Ki: 4000 nM
Coagulation factor X [4]
  Ki: 3.4 nM

## C[C@H]1ON=C(c2cccc(C(=N)N)c2)[C@@H]1C(=O)Nc1ccc(-c2ccccc2S(N)(=O)=O)cc1
Serine protease 1
  Ki: 110 nM
Prothrombin
  Ki: 4500 nM
Coagulation factor X [4]
  Ki: 1.8 nM

## CC1(C(=O)Nc2ccc(-c3ccccc3S(N)(=O)=O)cc2)CC(c2cccc(C(=N)N)c2)=NO1 (stereo not drawn)
Serine protease 1
  Ki: 120 nM
